Source: PubChem BioAssay (NCI)
Several values for one entry are separate records, joined by “and”; a condition that tells them apart may be missing. Identical values can stand only once.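 Step 1: Grow cells in 96-well plates. Step 2: Expose to compound for 48 hours at 5 concentrations. Step 3: Interpolate endpoints linearly; if unreached, use highest concentration. At the GI50, growth is halved. TGI: concentration producing complete growth inhibition.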

Tested on: NCI-H226 lung
Experiment: NCI anticancer screen, dose series, 48 h

SMILES | TGI
CC(C)CC1[C@@H](OCc2ccccc2)COS(=O)N1Cc1ccccc1 (stereo not given in full) | > 100 µM
OCC1OC(n2cnc3c2NC=NC[C@H]3O)C(O)C1O (stereo not given in full) | > 273 µM
CC(=O)OC1CC2c3cccc4c3C(CC2N(C)C1=O)CN4C(=O)c1ccccc1 (stereo not given) | 96.5 µM
COc1ccc2c3c1O[C@H]1C(O)CCC4(O)[C@@H](C2)NCC[C@]314 (stereo not given in full) | > 100 µM
CNC(=S)N/N=C(C)\C(=N/NC(=S)NC)c1ccccc1 | > 100 µM
O=C(O)c1nc(-c2ccccn2)c(-c2ccccn2)nc1C(=O)O | 4.7 µM
O=[N+]([O-])c1ccc(-n2nnc(C3=NCCCN3)c2-c2ccc(Cl)cc2)cc1 | > 100 µM
COc1cc2c(cc1OC)C(O)[C@H](Br)C(C)(C)O2 (stereo not given in full) | > 100 µM
CCCCCC(C[N+]1(C)CCOCC1)C(=O)/C=C/c1ccccc1 (stereo not given) | 25.6 µM
COc1ccc2c(c1C)C(=O)C(O)(CC=C(C)C)O2 (stereo not given) | > 100 µM
Cc1cccc2c1[C@]13OC(C)[C@]4(C)CC5OC(=O)[C@@]1(C)[C@@H]5[C@]34C(=O)O2 (stereo not given in full) | > 100 µM
CC(=O)OCC1OC(Nc2ncc(-c3ccc(C)cc3)s2)C(OC(C)=O)C(OC(C)=O)C1OC(C)=O (stereo not given) | 91.4 µM

Tested on: NCI-H23 lung
Experiment: NCI anticancer screen, dose series, 48 h

SMILES | TGI
CSC1=C(SC)SC(=C2SC3=C(SC(=C4SCCS4)S3)S2)S1 | > 100 µM
Cc1ccc2c(c1CCCC(C)(C)O)C(=O)C(=O)C(C(C)C)=C2O | > 100 µM
O=C1C(Cl)C(c2ccccc2)N1n1cnc2ccccc2c1=O (stereo not given) | > 100 µM
CN(C)C(=O)OCOC(=O)N(C)C | > 100 µM
CC(=O)Oc1ccccc1-c1cc2ccccc2oc1=O | > 100 µM
COC(=O)c1ccc(/C=C2\N=C(C)OC2=O)cc1 | > 100 µM
O=C1NC(=O)C(CCO)(c2ccccc2)C(=O)N1 | > 100 µM
COc1ccc2c(c1)CC[C@@H]1[C@@H]2CC[C@]2(C)C(=O)/C(=C/c3ccc(OC)c(OC)c3)C[C@@H]12 | > 100 µM
Cn1ccc(C(=O)NCCOCCNC(=O)c2ccn(C)c(=O)c2O)c(O)c1=O | > 100 µM
CC1=C(Br)C(Br)=C(C)S1=O | > 100 µM
C=CCn1c(=O)n(CC=C)c(=O)n(CC=C)c1=O | > 100 µM
CCCCN1C=CN2c3nc4cc(C)c(C)cc4n3C(C(=O)OC)=C(C(=O)OC)C12 (stereo not given) | > 100 µM
COC(=O)C(=C/c1ccc(OC)cc1)/C(C(=O)O)=C(/C)c1ccccc1 | > 100 µM
C=C1C(=O)O[C@H]2[C@H]1[C@@H](OC(=O)C=C(C)C)CC1=C[C@@H](C[C@@]3(C)O[C@@H]23)OC1=O | 13.5 µM
C=CCN1C[C@H](C)N([C@H](c2ccc(C(=O)N(CC)CCO)cc2)c2cccc(OC)c2)C[C@H]1C | > 100 µM
CCC1OC2C(CC=C(C)C)=C3OC(C)(O)C(C)(CC)C(OC(=O)c4ccccc4)C3=C3OC(=O)C=C1C32 (stereo not given) | > 100 µM
CCOC(=O)C(N=Nc1ccc(S(N)(=O)=O)cc1)C(C)=O (stereo not given) | > 100 µM

SMILES | TGI
Cc1ccc(C2CC(c3ccco3)=NN2c2ccccc2)o1 (stereo not given) | > 100 µM
C/C(=C1/CCCC2(N=NCC2c2ccccc2)C1=O)c1ccccc1 (stereo not given) | 67.5 µM
CN1CCOC1(C)CO (stereo not given) | > 100 µM
CCN1CCN(c2ccc(Nc3ccnc4ccc5nn(C)nc5c34)cc2)CC1 | 29.4 µM
CC(C)CC1[C@@H](OCc2ccccc2)COS(=O)N1Cc1ccccc1 (stereo not given in full) | > 100 µM
OCC1OC(n2cnc3c2NC=NC[C@H]3O)C(O)C1O (stereo not given in full) | > 450 µM
CC(=O)OC1CC2c3cccc4c3C(CC2N(C)C1=O)CN4C(=O)c1ccccc1 (stereo not given) | 55.4 µM
COc1ccc2c3c1O[C@H]1C(O)CCC4(O)[C@@H](C2)NCC[C@]314 (stereo not given in full) | > 100 µM
CNC(=S)N/N=C(C)\C(=N/NC(=S)NC)c1ccccc1 | > 100 µM
O=C(O)c1nc(-c2ccccn2)c(-c2ccccn2)nc1C(=O)O | 23.6 µM
O=[N+]([O-])c1ccc(-n2nnc(C3=NCCCN3)c2-c2ccc(Cl)cc2)cc1 | > 100 µM
COc1cc2c(cc1OC)C(O)[C@H](Br)C(C)(C)O2 (stereo not given in full) | > 100 µM
CCCCCC(C[N+]1(C)CCOCC1)C(=O)/C=C/c1ccccc1 (stereo not given) | 32 µM
COc1ccc2c(c1C)C(=O)C(O)(CC=C(C)C)O2 (stereo not given) | > 100 µM
CCOC(=O)C1(C(=O)OCC)CN(CC)CN(c2ccccc2)C1 | 39 µM
Cc1cccc2c1[C@]13OC(C)[C@]4(C)CC5OC(=O)[C@@]1(C)[C@@H]5[C@]34C(=O)O2 (stereo not given in full) | > 100 µM
CC(=O)OCC1OC(Nc2ncc(-c3ccc(C)cc3)s2)C(OC(C)=O)C(OC(C)=O)C1OC(C)=O (stereo not given) | > 100 µM

Tested on: OVCAR-3 ovarian
Experiment: NCI anticancer screen, dose series, 48 h

SMILES | TGI | GI50
CSC1=C(SC)SC(=C2SC3=C(SC(=C4SCCS4)S3)S2)S1 | > 100 µM | –
Cc1ccc2c(c1CCCC(C)(C)O)C(=O)C(=O)C(C(C)C)=C2O | > 100 µM | –
O=C1C(Cl)C(c2ccccc2)N1n1cnc2ccccc2c1=O (stereo not given) | > 100 µM | –
CN(C)C(=O)OCOC(=O)N(C)C | > 100 µM | –
CC(=O)Oc1ccccc1-c1cc2ccccc2oc1=O | > 100 µM | –
COC(=O)c1ccc(/C=C2\N=C(C)OC2=O)cc1 | > 100 µM | –
Cc1ccc2nc(-c3ccc(N)c(I)c3)sc2c1 | > 100 µM | –
O=C1NC(=O)C(CCO)(c2ccccc2)C(=O)N1 | > 100 µM | –
COc1ccc2c(c1)CC[C@@H]1[C@@H]2CC[C@]2(C)C(=O)/C(=C/c3ccc(OC)c(OC)c3)C[C@@H]12 | > 100 µM | –
CC1=C(Br)C(Br)=C(C)S1=O | 23.9 µM | –
C=CCn1c(=O)n(CC=C)c(=O)n(CC=C)c1=O | > 100 µM | –
CCCCN1C=CN2c3nc4cc(C)c(C)cc4n3C(C(=O)OC)=C(C(=O)OC)C12 (stereo not given) | > 100 µM | –
COC(=O)C(=C/c1ccc(OC)cc1)/C(C(=O)O)=C(/C)c1ccccc1 | > 100 µM | –
C=C1C(=O)O[C@H]2[C@H]1[C@@H](OC(=O)C=C(C)C)CC1=C[C@@H](C[C@@]3(C)O[C@@H]23)OC1=O | 4.77 µM and 15.6 µM | 4.92 µM
C=CCN1C[C@H](C)N([C@H](c2ccc(C(=O)N(CC)CCO)cc2)c2cccc(OC)c2)C[C@H]1C | 54.6 µM | –
CCC1OC2C(CC=C(C)C)=C3OC(C)(O)C(C)(CC)C(OC(=O)c4ccccc4)C3=C3OC(=O)C=C1C32 (stereo not given) | > 100 µM | –
CCOC(=O)C(N=Nc1ccc(S(N)(=O)=O)cc1)C(C)=O (stereo not given) | > 100 µM | –

SMILES | TGI | GI50
Cc1ccc(C2CC(c3ccco3)=NN2c2ccccc2)o1 (stereo not given) | > 100 µM | –
C/C(=C1/CCCC2(N=NCC2c2ccccc2)C1=O)c1ccccc1 (stereo not given) | 40.3 µM | –
CN1CCOC1(C)CO (stereo not given) | > 100 µM | –
CCN1CCN(c2ccc(Nc3ccnc4ccc5nn(C)nc5c34)cc2)CC1 | 29.5 µM | –
CC(C)CC1[C@@H](OCc2ccccc2)COS(=O)N1Cc1ccccc1 (stereo not given in full) | > 100 µM | –
OCC1OC(n2cnc3c2NC=NC[C@H]3O)C(O)C1O (stereo not given in full) | > 450 µM | –
CC(=O)OC1CC2c3cccc4c3C(CC2N(C)C1=O)CN4C(=O)c1ccccc1 (stereo not given) | 30.1 µM | –
COc1ccc2c3c1O[C@H]1C(O)CCC4(O)[C@@H](C2)NCC[C@]314 (stereo not given in full) | > 100 µM | –
CNC(=S)N/N=C(C)\C(=N/NC(=S)NC)c1ccccc1 | > 100 µM | –
O=C(O)c1nc(-c2ccccn2)c(-c2ccccn2)nc1C(=O)O | 12.4 µM | –
O=[N+]([O-])c1ccc(-n2nnc(C3=NCCCN3)c2-c2ccc(Cl)cc2)cc1 | > 100 µM | –
COc1cc2c(cc1OC)C(O)[C@H](Br)C(C)(C)O2 (stereo not given in full) | > 100 µM | –
CCCCCC(C[N+]1(C)CCOCC1)C(=O)/C=C/c1ccccc1 (stereo not given) | 27.4 µM | –
COc1ccc2c(c1C)C(=O)C(O)(CC=C(C)C)O2 (stereo not given) | > 100 µM | –
CCOC(=O)C1(C(=O)OCC)CN(CC)CN(c2ccccc2)C1 | 33.5 µM | –
Cc1cccc2c1[C@]13OC(C)[C@]4(C)CC5OC(=O)[C@@]1(C)[C@@H]5[C@]34C(=O)O2 (stereo not given in full) | > 100 µM | –
CC(=O)OCC1OC(Nc2ncc(-c3ccc(C)cc3)s2)C(OC(C)=O)C(OC(C)=O)C1OC(C)=O (stereo not given) | > 88.1 µM | –

Tested on: OVCAR-5 ovarian
Experiment: NCI anticancer screen, dose series, 48 h

SMILES | TGI | GI50
CSC1=C(SC)SC(=C2SC3=C(SC(=C4SCCS4)S3)S2)S1 | > 100 µM | –
O=C1C(Cl)C(c2ccccc2)N1n1cnc2ccccc2c1=O (stereo not given) | > 100 µM | –
CN(C)C(=O)OCOC(=O)N(C)C | > 100 µM | –
CC(=O)Oc1ccccc1-c1cc2ccccc2oc1=O | > 100 µM | –
COC(=O)c1ccc(/C=C2\N=C(C)OC2=O)cc1 | > 100 µM | –
Cc1ccc2nc(-c3ccc(N)c(I)c3)sc2c1 | > 100 µM | –
O=C1NC(=O)C(CCO)(c2ccccc2)C(=O)N1 | > 100 µM | –
COc1ccc2c(c1)CC[C@@H]1[C@@H]2CC[C@]2(C)C(=O)/C(=C/c3ccc(OC)c(OC)c3)C[C@@H]12 | > 100 µM | –
CC1=C(Br)C(Br)=C(C)S1=O | 37.4 µM | –
C=CCn1c(=O)n(CC=C)c(=O)n(CC=C)c1=O | > 100 µM | –
CCCCN1C=CN2c3nc4cc(C)c(C)cc4n3C(C(=O)OC)=C(C(=O)OC)C12 (stereo not given) | > 100 µM | –
COC(=O)C(=C/c1ccc(OC)cc1)/C(C(=O)O)=C(/C)c1ccccc1 | > 100 µM | –
C=C1C(=O)O[C@H]2[C@H]1[C@@H](OC(=O)C=C(C)C)CC1=C[C@@H](C[C@@]3(C)O[C@@H]23)OC1=O | 32.1 µM and 49 µM | 30 µM
C=CCN1C[C@H](C)N([C@H](c2ccc(C(=O)N(CC)CCO)cc2)c2cccc(OC)c2)C[C@H]1C | > 100 µM | –
CCC1OC2C(CC=C(C)C)=C3OC(C)(O)C(C)(CC)C(OC(=O)c4ccccc4)C3=C3OC(=O)C=C1C32 (stereo not given) | > 100 µM | –
CCOC(=O)C(N=Nc1ccc(S(N)(=O)=O)cc1)C(C)=O (stereo not given) | > 100 µM | –
Cc1ccc(C2CC(c3ccco3)=NN2c2ccccc2)o1 (stereo not given) | > 100 µM | –
C/C(=C1/CCCC2(N=NCC2c2ccccc2)C1=O)c1ccccc1 (stereo not given) | > 100 µM | –
CN1CCOC1(C)CO (stereo not given) | > 100 µM | –
CCN1CCN(c2ccc(Nc3ccnc4ccc5nn(C)nc5c34)cc2)CC1 | 32.5 µM | –
CC(C)CC1[C@@H](OCc2ccccc2)COS(=O)N1Cc1ccccc1 (stereo not given in full) | > 100 µM | –
OCC1OC(n2cnc3c2NC=NC[C@H]3O)C(O)C1O (stereo not given in full) | > 450 µM | –
CC(=O)OC1CC2c3cccc4c3C(CC2N(C)C1=O)CN4C(=O)c1ccccc1 (stereo not given) | > 100 µM | –
COc1ccc2c3c1O[C@H]1C(O)CCC4(O)[C@@H](C2)NCC[C@]314 (stereo not given in full) | > 100 µM | –
CNC(=S)N/N=C(C)\C(=N/NC(=S)NC)c1ccccc1 | > 100 µM | –
O=C(O)c1nc(-c2ccccn2)c(-c2ccccn2)nc1C(=O)O | 18.3 µM | –
O=[N+]([O-])c1ccc(-n2nnc(C3=NCCCN3)c2-c2ccc(Cl)cc2)cc1 | > 100 µM | –
COc1cc2c(cc1OC)C(O)[C@H](Br)C(C)(C)O2 (stereo not given in full) | > 100 µM | –
